Experimental data as given in US5837862A, “Sialyl Lewis X mimetics incorporating mannopeptides” (The Scripps Research Institute, priority 1996, dated 1998).

How the values were obtained:
lung injury in rats = settings: cited from earlier work
[1] = in vivo; cited from earlier work
glycosidase = settings: because of glycosidase reductions; cited from earlier work
E-selectin = target: T1, E-selectin (Homo sapiens, UniProt P16581); test: E-selectin inhibition assay (Weitz-Schmidt et al.); format: binding
T1 sequence (P16581 22-610): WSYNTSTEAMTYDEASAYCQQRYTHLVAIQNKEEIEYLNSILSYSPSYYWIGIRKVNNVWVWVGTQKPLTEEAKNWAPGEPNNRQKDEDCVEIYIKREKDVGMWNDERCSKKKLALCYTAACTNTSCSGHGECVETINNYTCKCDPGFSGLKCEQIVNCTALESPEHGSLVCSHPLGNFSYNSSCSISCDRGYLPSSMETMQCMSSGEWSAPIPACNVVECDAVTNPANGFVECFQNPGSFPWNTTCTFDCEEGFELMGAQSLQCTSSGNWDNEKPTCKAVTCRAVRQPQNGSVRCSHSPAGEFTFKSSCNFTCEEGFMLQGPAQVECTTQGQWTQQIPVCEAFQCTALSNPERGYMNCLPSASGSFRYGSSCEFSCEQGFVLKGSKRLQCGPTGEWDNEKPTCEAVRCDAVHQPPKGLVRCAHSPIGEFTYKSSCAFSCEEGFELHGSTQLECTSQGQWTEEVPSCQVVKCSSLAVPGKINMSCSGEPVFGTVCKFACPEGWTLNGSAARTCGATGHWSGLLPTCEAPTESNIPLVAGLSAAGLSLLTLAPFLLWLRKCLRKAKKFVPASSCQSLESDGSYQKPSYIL

P-selectin = target: T2, P-selectin (Homo sapiens, UniProt P16109); test: P-selectin inhibition assay; format: binding; settings: at 3 mM
T2 sequence (P16109 42-830): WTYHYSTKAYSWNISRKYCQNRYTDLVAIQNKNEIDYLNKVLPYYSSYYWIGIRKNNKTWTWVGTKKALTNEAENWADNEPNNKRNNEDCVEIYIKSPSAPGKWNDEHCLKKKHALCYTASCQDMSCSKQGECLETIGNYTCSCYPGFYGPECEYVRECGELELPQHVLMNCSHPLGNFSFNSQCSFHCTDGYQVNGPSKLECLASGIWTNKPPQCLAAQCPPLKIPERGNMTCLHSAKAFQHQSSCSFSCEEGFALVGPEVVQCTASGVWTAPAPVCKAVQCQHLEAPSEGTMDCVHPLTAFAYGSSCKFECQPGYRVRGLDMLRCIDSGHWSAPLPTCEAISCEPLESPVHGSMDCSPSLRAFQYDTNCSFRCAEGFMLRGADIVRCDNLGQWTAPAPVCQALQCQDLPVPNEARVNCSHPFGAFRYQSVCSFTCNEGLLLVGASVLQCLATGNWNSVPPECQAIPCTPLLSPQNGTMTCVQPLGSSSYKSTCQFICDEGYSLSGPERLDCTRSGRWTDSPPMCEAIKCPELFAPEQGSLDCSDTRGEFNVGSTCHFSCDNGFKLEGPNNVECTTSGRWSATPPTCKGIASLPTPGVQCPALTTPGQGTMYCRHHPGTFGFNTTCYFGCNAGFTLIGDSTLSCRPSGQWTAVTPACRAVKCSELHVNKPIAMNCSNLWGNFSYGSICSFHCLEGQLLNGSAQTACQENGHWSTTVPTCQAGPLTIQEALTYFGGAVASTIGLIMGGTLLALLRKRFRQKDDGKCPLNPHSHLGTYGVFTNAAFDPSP

L-selectin = target: T3, L-selectin (Homo sapiens, UniProt P14151); test: L-selectin inhibition assay; format: binding; settings: at 3 mM
T3 sequence (P14151 39-372): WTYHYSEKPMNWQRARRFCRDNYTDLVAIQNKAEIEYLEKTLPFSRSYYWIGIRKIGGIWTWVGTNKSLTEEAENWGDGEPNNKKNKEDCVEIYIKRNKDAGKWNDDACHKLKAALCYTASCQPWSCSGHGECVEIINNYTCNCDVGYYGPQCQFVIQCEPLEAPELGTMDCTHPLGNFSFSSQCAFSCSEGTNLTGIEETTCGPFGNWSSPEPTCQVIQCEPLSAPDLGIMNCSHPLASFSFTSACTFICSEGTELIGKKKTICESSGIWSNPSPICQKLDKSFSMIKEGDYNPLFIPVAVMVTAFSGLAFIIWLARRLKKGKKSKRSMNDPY

| Compound | effective intravenous concentration (lung injury in rats; rat, intravenous infusion of up to 200 μg, calculated) | effect on lung injury (lung injury in rats; rat, intravenous infusion of up to 200 μg, cobra venom) | IC50 (lung injury in rats; rats, read-out: IC50 value in vivo for protecting against lung injury) | oral activity [1] | stability in the blood stream (glycosidase) | IC50 (E-selectin) | activity relative to SLex (E-selectin; versus SLex) | inhibition of P-selectin (P-selectin) | inhibition of L-selectin (L-selectin) |
| --- | --- | --- | --- | --- | --- | --- | --- | --- | --- |
| NeuAcα2→3Galβ1→4(Fucα1→3)GlcNAc [SLex] | less than 1 μM | dramatically reduced lung injury | ~1 µM | orally inactive | unstable in the blood stream |  |  |  |  |
| O=C(O)CNC(=O)[C@@H](O)[C@H](O)C[C@H]1O[C@H](CO)[C@@H](O)[C@H](O)[C@@H]1O [Mimetic 5, (2S,3R)-N-Carboxylmethyl-2,3-dihydroxy-4-(α-D -mannopyranosyl)-butyramide] |  |  |  |  |  | 160 µM | 3 fold | does not inhibit | does not inhibit |
